Results taken from patent publication US12162867B2, “Inhibitors of RNA helicase DHX9 and uses thereof” (ACCENT THERAPEUTICS, INC., priority 2022, dated 2024).

Tested on: circBRIP1 in HCT116 cells
Experiment: DHX9 circBRIP1 cellular target engagement SYBR Green assay (qPCR)
Type: cell-based
Details: Homo sapiens, HCT-116, circBRIP1, HCT116 cells; SyBr assay (marked ^+); read-out: DHX9 Cellular Target Engagement EC50

Structure (SMILES)	EC50
CS(=O)(=O)Nc1cc(Cl)cc(NC(=O)c2cnn(-c3cnc(N4CCOCC4)cn3)c2)c1 [Example 388]	6.53 µM
CS(=O)(=O)Nc1cc(Cl)cc(NC(=O)c2cc(Br)cs2)c1 [Example 241]	3.68 µM
CS(=O)(=O)Nc1cc(Cl)cc(NC(=O)c2cnn([C@H]3CC[C@H](O)CC3)c2)c1 (single isomer, unassigned) [Example 154]	> 10 µM
CS(=O)(=O)Nc1cc(Cl)cc(NC(=O)c2cc3cc(C(F)(F)F)ccc3s2)c1 [Example 326]	> 10 µM
Cc1ccc(C#N)cc1-n1cc(C(=O)Nc2cc(Br)cc(NS(C)(=O)=O)c2)cn1 [Example 53]	4.95 µM
CS(=O)(=O)Nc1cc(Br)cc(NC(=O)c2cnn(-c3cccc(C(F)F)n3)c2)c1 [Example 56]	7.43 µM
CCS(=O)(=O)Nc1cc(F)cc(NC(=O)c2cc(-c3ccccn3)cs2)c1 [Example 113]	7.44 µM
CS(=O)(=O)Nc1cc(Cl)cc(NC(=O)c2cc(-c3cccc(F)c3)cs2)c1 [Example 108]	6.65 µM
CC(Oc1cccnc1-n1cc(C(=O)Nc2cc(Cl)cc(NS(C)(=O)=O)c2)cn1)c1ccccc1 (stereo not shown) [Example 62]	6.8 µM
CS(=O)(=O)Nc1cc(Cl)cc(NC(=O)c2cc3ccc(Cl)cc3s2)c1 [Example 293]	> 10 µM
CC1(C)CC(n2cc(C(=O)Nc3cc(Cl)cc(NS(C)(=O)=O)c3)cn2)CCN1 (stereo not shown) [Example 315]	> 10 µM
Cc1cc(C(=O)Nc2cc(F)cc(NS(C)(=O)=O)c2)c[nH]1 [Example 5]	> 30 µM
CS(=O)(=O)Nc1cc(Cl)cc(NC(=O)c2cnn(C3CCNCC3)c2)c1 [Example 145, N-(3-chloro-5-(methylsulfonamido)phenyl)-1-(piperidin-4-yl)-1H-pyrazole-4-carboxamide]	> 10 µM
COC(=O)[C@@H]1CCCN1c1csc(C(=O)Nc2cc(Cl)cc(NS(C)(=O)=O)c2)c1 [Example 242]	5.02 µM
CS(=O)(=O)Nc1cc(Br)cc(NC(=O)c2cnn(-c3ccc(C(F)(F)F)cn3)c2)c1 [Example 43]	4.71 µM
CS(=O)(=O)Nc1cc(Cl)cc(NC(=O)c2cc(N3CCOCC3)cs2)c1 [Example 245]	4.31 µM
CS(=O)(=O)Nc1cc(Cl)cc(NC(=O)c2cnn(-c3ncccc3S(C)(=O)=O)c2)c1 [Example 199]	> 10 µM

Structure (SMILES)	EC50
CS(=O)(=O)Nc1cc(Cl)cc(NC(=O)c2cnn(C3CC4(CC(N)C4)C3)c2)c1 (stereo not shown) [Example 319]	> 10 µM
CS(=O)(=O)Nc1cc(Cl)cc(NC(=O)c2cnn(-c3ncccc3C(F)(F)F)c2)c1 [Example 47]	6.73 µM
Cc1ccc2sc(C(=O)Nc3cc(Cl)cc(NS(C)(=O)=O)c3)cc2c1 [Example 331]	3.75 µM
CS(=O)(=O)Nc1cc(Cl)cc(NC(=O)c2cnn(-c3ncccc3OCc3ccncc3)c2)c1 [Example 64]	5.64 µM
CS(=O)(=O)Nc1cc(F)cc(NC(=O)c2cc(-c3cccnc3)cs2)c1 [Example 105, N-(3-fluoro-5-(methylsulfonamido)phenyl)-4-(pyridin-3-yl)thiophene-2-carboxamide]	8.33 µM
CC(C)(C)OC(=O)N1CC2(CC(n3cc(C(=O)Nc4cc(Cl)cc(NS(C)(=O)=O)c4)cn3)C2)C1 [Example 144, tert-butyl 6-(4-((3-chloro-5-(methylsulfonamido)phenyl)carbamoyl)-1H-pyrazol-1-yl)-2-azaspiro[3.3]heptane-2-carboxylate]	5.85 µM
CS(=O)(=O)Nc1cc(Cl)cc(NC(=O)c2cnn(-c3ccc(S(C)(=O)=O)cn3)c2)c1 [Example 198]	> 10 µM
CS(=O)(=O)Nc1cc(Cl)cc(NC(=O)c2cc3cnccc3s2)c1 [Example 288]	7.8 µM
Cc1cc(C(=O)Nc2cc(Cl)cc(NS(=O)(=O)C(F)F)c2)cn1-c1ccc(N2CCOCC2)cn1 [Example 248]	> 10 µM
CS(=O)(=O)Nc1cc(Cl)cc(NC(=O)c2cnn(C3CCOC3)c2)c1 (stereo not shown) [Example 182]	> 10 µM
Cc1cn2cc(C(=O)Nc3cc(Cl)cc(NS(C)(=O)=O)c3)cc2c(C)n1 [Example 322]	> 10 µM
CN1CCC(n2cc(C(=O)Nc3cc(Cl)cc(NS(C)(=O)=O)c3)cn2)CC1=O (stereo not shown) [Example 307]	> 10 µM
CS(=O)(=O)Nc1cc(Cl)cc(NC(=O)c2cc(-c3ccccc3)co2)c1 [Example 7]	24.2 µM
CS(=O)(=O)Nc1cc(Cl)cc(NC(=O)c2cn(-c3ccccc3)cn2)c1 [Example 1, N-(3-chloro-5-(methylsulfonamido)phenyl)-1-phenyl-1H-imidazole-4-carboxamide]	16.4 µM
CS(=O)(=O)Nc1cc(Cl)cc(NC(=O)c2cnn([C@H]3CC[C@H]3O)c2)c1 (single isomer, unassigned) [Example 306b]	> 10 µM
CS(=O)(=O)Nc1cc(Cl)cc(NC(=O)c2cc(-c3ccccc3)c[nH]2)c1 [Example 8]	5.52 µM

The next lines start with the values.

EC50	Structure (SMILES)
3.55 µM	CS(=O)(=O)Nc1cc(Cl)cc(NC(=O)c2cnn(C3CC4CCC(C3)O4)c2)c1 (stereo not shown) [Example 250]
0.251 µM	Cc1cccnc1-c1csc(C(=O)Nc2cc(F)cc(NS(C)(=O)=O)c2)c1 [Example 334]
2.26 µM	CS(=O)(=O)Nc1cc(Cl)cc(NC(=O)c2cc(C(F)(F)F)n(-c3ccc(F)cn3)c2)c1 [Example 267]
0.291 µM	CS(=O)(=O)Nc1cc(Cl)cc(NC(=O)c2cnn(-c3ncc(N4CC5(COC5)C4)cc3OCc3cc(F)cc(F)c3)c2)c1 [Example 258]
0.421 µM	Cc1cccnc1-c1cc(C(=O)Nc2cc(F)cc(NS(C)(=O)=O)c2)sc1C [Example 333]
0.101 µM	Cc1cc(C(=O)Nc2cc(Cl)cc(NS(C)(=O)=O)c2)cn1-c1ccc(N2CCCC2)cn1 [Example 270]
1.06 µM	CS(=O)(=O)Nc1cc(Cl)cc(NC(=O)c2cnn(-c3ccc(N4CCCC4=O)cn3)c2)c1 [Example 90]
1.64 µM	CS(=O)(=O)Nc1cc(Cl)cc(NC(=O)c2cc(-c3ccccc3)cs2)c1 [Example 75]
0.439 µM	CS(=O)(=O)Nc1cc(Cl)cc(NC(=O)c2cnn(-c3ncccc3COc3cncc(F)c3)c2)c1 [Example 262]
1.15 µM	CS(=O)(=O)Nc1cc(Br)cc(NC(=O)c2cnn(-c3cnccn3)c2)c1 [Example 40]
3.01 µM	CS(=O)(=O)Nc1cc(Br)cc(NC(=O)c2cnn(-c3cccc(C#N)c3)c2)c1 [Example 52]
0.251 µM	CS(=O)(=O)Nc1cc(Cl)cc(NC(=O)c2cc(-c3ccc(N4CC5(COC5)C4)cn3)n(CC(F)(F)F)c2)c1 [Example 278]
2.3 µM	CS(=O)(=O)Nc1cc(Cl)cc(NC(=O)c2cc3cccnn3c2)c1 [Example 292]
0.578 µM	CS(=O)(=O)Nc1cc(Cl)cc(NC(=O)c2cnn(-c3ncccc3OCc3c[nH]cn3)c2)c1 [Example 254]
3.34 µM	CS(=O)(=O)Nc1cc(Cl)cc(NC(=O)c2cc3c(Cl)cccc3s2)c1 [Example 332]
0.189 µM	CS(=O)(=O)Nc1cc(Cl)cc(NC(=O)c2cnn(-c3c(F)cccc3OCc3cccc(F)c3)c2)c1 [Example 211]
0.348 µM	CS(=O)(=O)Nc1cc(Cl)cc(NC(=O)c2cc(-c3ncccc3Oc3cccnc3)cs2)c1 [Example 239]
0.126 µM	CS(=O)(=O)Nc1cc(Cl)cc(NC(=O)c2cc(-c3ncc(F)cn3)cs2)c1 [Example 338]
0.884 µM	CS(=O)(=O)Nc1cc(Br)cc(NC(=O)c2cnn(-c3ccc(F)cn3)c2)c1 [Example 39]
1.93 µM	CS(=O)(=O)Nc1cc(Cl)cc(NC(=O)c2cc3c(C(F)(F)F)cccn3c2)c1 [Example 302]
2.71 µM	CCS(=O)(=O)Nc1cc(Cl)cc(NC(=O)c2cc(-c3cccnc3)cs2)c1 [Example 110]
2.67 µM	Cc1cc(C)c2cc(C(=O)Nc3cc(Cl)cc(NS(C)(=O)=O)c3)cn2c1 [Example 328]
1.33 µM	Cc1sc(C(=O)Nc2cc(Cl)cc(NS(C)(=O)=O)c2)cc1-c1ncccc1CC(=O)N(C)C [Example 385]
1.14 µM	CS(=O)(=O)Nc1cc(Cl)cc(NC(=O)c2cc3c(F)cccc3s2)c1 [Example 296]
0.0311 µM	Cc1cc(C(=O)Nc2cc(Cl)cc(NS(C)(=O)=O)c2)cn1-c1ccc(N2CCOC(C)(C)C2)cn1 [Example 272]

Same assay, conditions: Homo sapiens, HCT-116, circBRIP1, HCT116 cells; ^+ SyBr assay was used; read-out: DHX9 Cellular Target Engagement EC50

EC50	Structure (SMILES)
2.28 µM	CS(=O)(=O)Nc1cc(Cl)cc(NC(=O)c2cnn(-c3ncc(F)cc3OCc3cnco3)c2)c1 [Example 719]
1.57 µM	CS(=O)(=O)Nc1cc(Cl)cc(NC(=O)c2cnn(-c3c(F)cccc3OCc3cnco3)c2)c1 [Example 721]
0.858 µM	CCOc1cnc(-n2cc(C(=O)Nc3cc(Cl)cc(NS(C)(=O)=O)c3)cc2C(F)(F)F)nc1 [Example 693]
0.679 µM	Cc1sc(C(=O)Nc2cc(Cl)cc(NS(C)(=O)=O)c2)cc1-c1ncc(F)cc1-c1cnco1 [Example 705]
0.16 µM	Cn1cc(C(=O)Nc2cc(Cl)cc(NS(C)(=O)=O)c2)cc1-c1ncc(F)cc1-c1cncc(F)c1 [Example 604, N-(3-chloro-5-methanesulfonamidophenyl)-5-{5,5′-difluoro-[3,3′-bipyridin]-2-yl}-1-methylpyrrole-3-carboxamide]
9.93 µM	CS(=O)(=O)Nc1cc(Cl)cc(NC(=O)c2cc(C(=O)N3CCN(CC(F)(F)F)CC3)n(-c3ccccn3)c2)c1 [Example 649]
0.291 µM	CS(=O)(=O)Nc1cc(Cl)cc(NC(=O)c2cnn(-c3ncc(N4CC5(COC5)C4)cc3O)c2)c1 [Example 691]
0.124 µM	Cc1cc(C(=O)Nc2cc(Cl)cc(NS(C)(=O)=O)c2)cn1-c1ncc(OC2COC2)cn1 [Example 669]
> 10 µM	CN(C)C(=O)c1cccc(OCc2cccc(F)c2)c1-n1cc(C(=O)Nc2cc(Cl)cc(NS(C)(=O)=O)c2)cn1 [Example 717]
0.149 µM	COCc1cc(C(=O)Nc2cc(Cl)cc(NS(C)(=O)=O)c2)cn1-c1ncccc1F [Example 682]
1.26 µM	CC(C)(C)OC(=O)N1CC(n2cc(C(=O)Nc3cc(Cl)cc(NS(C)(=O)=O)c3)cc2-c2ncc(F)cn2)C1 [Example 645]
3.56 µM	CS(=O)(=O)Nc1cc(Cl)cc(NC(=O)c2cc3c(s2)CCC3Oc2cccnc2)c1 (stereo not shown) [Example 687]
